The results in this text go back to patent publication US5416070A, “Composition for macrophage activation” (ImmunoTherapeutics, Inc., priority 1990, dated 1995).

Structures are written as SMILES.

The subject of assay [1] is human peripheral blood monocytes. The assay can be described thus: Activation of monocytes in vitro measured by production of Interleukin-1-beta (ELISA). The format is cell-based. To be noted: 24 Hours. The protocol: (§1) Human peripheral blood monocytes were isolated by density gradient centrifugation as noted in Example 13. The cell number was adjusted to 5×10^5 cells per ml in RPM 1640 media containing 5% human AB negative serum. One ml containing 5×10^5 cells were placed in individual wells of 24-well Plastek tissue culture plate. Various drugs in a volume of 0.5 ml were added at time zero. The compounds were also formulated in liposomes as described in Example 10, and added in a volume of 0.5 ml to individual wells of a 24-well Plastek tissue culture plate. The cells were incubated at 37° C. in a 5% CO2 atmosphere. Aliquots (0.1 ml) of the supernatant were removed at 24 hours and frozen at -20° C. These samples were subsequently assayed for TNF as described in Example 33 and Interleukin-1-beta (IL-1β) using a commercially available ELISA kit from Cistron (Pine Brook, N.J.).
For orientation: In an ELISA, binding on a coated surface is turned into a signal by an enzyme label.

Assay [2] has the same test system. The experiment in a line: Activation of monocytes in vitro measured by production of tumor necrosis factor (ELISA). The format is cell-based. To be noted: 24 Hours. How it is done: Human peripheral blood monocytes were isolated by density gradient centrifugation as noted in Example 13. The cell number was adjusted to 5×10^5 cells per ml in RPM 1640 media containing 5% human AB negative serum. One ml containing 5×10^5 cells were placed in individual wells of a 24-well Plastek tissue culture plate. Various drugs in a volume of 0.5 ml were added at time zero. The cells were incubated at 37° C. in a 5% CO2 atmosphere. Aliquots (0.1 ml) of the supernatant were removed at 24 hours and frozen at -80° C. These samples were subsequently assayed for tumor necrosis factor (TNF) activity using a commercially available ELISA Assay from T-Cell Sciences (Cambridge, Mass.).
Human peripheral blood monocytes were isolated by density gradient centrifugation as described in Example 13. The cells were plated in 24-well microliter plates as described in Example 33. The compounds Were prepared in liposomes as described in Example 10, and assayed for TNF production, as described in Example 33. The results are set forth in Table 5, and show significant levels of TNF compared to controls.
as §1

In the case of `CCCCCCCCCCCCCCCC(=O)OCC(COC(=O)C(C)NC(=O)CCC(NC(=O)C(NC(=O)C(C)OC1C(NC(C)=O)C(O)OC(CO)C1OC1OC(CO)C(O)C(O)C1NC(C)=O)C(C)C)C(N)=O)OC(=O)CCCCCCCCCCCCCCC` [IIF, GlcNAcMurNAc-F-Val-D-isoGln-F-Ala-DpG], the “IL-1-beta (pg/ml) at given Concentration of Compound” value in assay [1] (Table 8, Experiment 1, 0.01 μg/ml) amounted to 220 pg/mL; in assay [1] (Table 8, Experiment 1, 0.1 μg/ml), 212 pg/mL; in assay [1] (Table 8, Experiment 1, 1.0 μg/ml), 260 pg/mL; in assay [1] (Table 8, Experiment 1, 10.0 μg/ml), 260 pg/mL. The “TNF (pg/ml) at given Concentration of Compound” value in assay [2] (Table 7, Experiment 1, 0.01 μg/ml) was 510 pg/mL; in assay [2] (Table 7, Experiment 1, 0.1 μg/ml) it was 440 pg/mL; in assay [2] (Table 7, Experiment 1, 1.0 μg/ml), 480 pg/mL; in assay [2] (Table 7, Experiment 1, 10.0 μg/ml) it was 400 pg/mL.
